EC50 data for 26 molecules are collected here from patent US10844049B2, “GLP-1R agonists and uses thereof” (QILU REGOR THERAPEUTICS INC., priority 2018, dated 2020).

As a reminder, the EC50 is the concentration giving half of the maximal effect.

Where only a bound is given, the exact number is not on record here.

GLP1R, sequence (P43220 24-463): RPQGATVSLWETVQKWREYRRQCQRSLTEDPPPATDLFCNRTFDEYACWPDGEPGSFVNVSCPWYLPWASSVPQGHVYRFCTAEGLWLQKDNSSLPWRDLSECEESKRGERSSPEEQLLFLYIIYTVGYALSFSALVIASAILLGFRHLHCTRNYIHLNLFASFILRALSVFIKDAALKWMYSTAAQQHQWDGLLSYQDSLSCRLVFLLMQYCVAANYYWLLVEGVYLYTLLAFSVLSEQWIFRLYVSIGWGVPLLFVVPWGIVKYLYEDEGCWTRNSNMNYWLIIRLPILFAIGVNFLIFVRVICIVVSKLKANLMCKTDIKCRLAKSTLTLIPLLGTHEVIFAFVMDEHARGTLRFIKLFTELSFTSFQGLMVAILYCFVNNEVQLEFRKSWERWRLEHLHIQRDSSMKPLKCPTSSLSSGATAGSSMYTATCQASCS

The experiment addresses GLP1R (Homo sapiens, UniProt P43220). Kind of experiment: GLP1R cAMP HTRF assay, HEK293/GLP-1R/CRE/Luc (HEK293T cells). The class given is cell-based. As to conditions: read-out: EC50. The method in brief: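 cAMP accumulation via HTRF after 30 min, 37 °C exposure of 1000 receptor-expressing cells/well to compound (0.5% DMSO final) in IBMX (500 μM)/0.1% BSA DPBS.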
In general terms: TR-FRET usually uses a lanthanide donor and a delayed reading to cut background.
With `O=C(O)c1ccc2nc(CN3CC=C(c4nccc(NCc5ccc(Cl)cc5F)n4)CC3)n(C[C@@H]3CCO3)c2c1` [Compound 124, (S)-2-((4-(4-((4-chloro-2-fluorobenzyl)amino)pyrimidin-2-yl)-5,6-dihydropyridin-1(2H)-yl)methyl)-1-(oxetan-2-ylmethyl)-1H-benzo[d]imidazole-6-carboxylic add], the EC50 is at most 1000 nM.
As for `O=C(O)c1ccc2nc(CN3CC=C(c4ccnc(NCc5ccc(Cl)cc5F)n4)CC3)n(C[C@@H]3CCO3)c2c1` [Compound 125, (S)-2-((4-(2-((4-chloro-2-fluorobenzyl)amino)pyrimidin-4-yl)-3,6-dihydropyridin-1(2H)-yl)methyl)-1-(oxetan-2-ylmethyl)-1H-benzo[d]imidazole-6-carboxylic add], the EC50 is at most 150 nM.
To `O=C(O)c1ccc2nc(CN3CC=C(c4nc(OCc5ccc(Cl)cc5F)ncc4F)CC3)n(C[C@@H]3CCO3)c2c1` [Compound 126, (S)-2-((4-(2-(4-chloro-2-fluorobenzyloxy)-5-fluoropyrimidin-4-yl)-5,6-dihydropyridin-1(2H)-yl)methyl)-1-(oxetan-2-ylmethyl)-1H-benzo[d]imidazole-6-carboxylic acid] belongs at most 15 nM.
To `O=C(O)c1ccc2nc(CN3CC=C(c4cc(NCc5ccc(Cl)cc5F)ccc4F)CC3)n(C[C@@H]3CCO3)c2c1` [Compound 127, (S)-2-((4-(5-((4-chloro-2-fluorobenzyl)amino)-2-fluorophenyl)-3,6-dihydropyridin-1(2H)-yl)methyl)-1-(oxetan-2-ylmethyl)-1H-benzo[d]imidazole-6-carboxylic acid] belongs at most 150 nM.
To `O=C(O)c1ccc2nc(CN3CC=C(c4cc(OCc5ccc(Cl)cc5F)ncc4F)CC3)n(C[C@@H]3CCO3)c2c1` [Compound 128, (S)-2-((2′-((4-chloro-2-fluorobenzyl)oxy)-5′-fluoro-3,6-dihydro-[4,4′-bipyridin]-1(2H)-yl)methyl)-1-(oxetan-2-ylmethyl)-1H-benzo[d]imidazole-6-carboxylic acid] belongs at most 150 nM; to `O=C(O)c1ccc2nc(CN3CC=C(c4ccc(F)c(NCc5ccc(Cl)cc5F)c4)CC3)n(C[C@@H]3CCO3)c2c1` [Compound 129, (S)-2-((4-(3-((4-chloro-2-fluorobenzyl)amino)-4-fluorophenyl)-3,6-dihydropyridin-1(2H)-yl)methyl)-1-(oxetan-2-ylmethyl)-1H-benzo[d]imidazole-6-carboxylic acid], at most 15 nM; to `O=C(O)c1ccc2nc(CN3CC=C(c4ccnc(NCc5ccc(Cl)cc5F)c4)CC3)n(C[C@@H]3CCO3)c2c1` [Compound 130, (S)-2-((2′-((4-chloro-2-fluorobenzyl)amino)-3,6-dihydro-[4,4′-bipyridin]-1(2H)-yl)methyl)-1-(oxetan-2-ylmethyl)-1H-benzo[d]imidazole-6-carboxylic add], at most 1000 nM.
On to `O=C(O)c1ccc2nc(CN3CC=C(c4nc(OCc5ccc(Cl)cc5F)c(F)cc4F)CC3)n(C[C@@H]3CCO3)c2c1` [Compound 131, (S)-2-((4-(6-(4-chloro-2-fluorobenzyloxy)-3,5-difluoropyridin-2-yl)-5,6-dihydropyridin-1(2H)-yl)methyl)-1-(oxetan-2-ylmethyl)-1H-benzo[d]imidazole-6-carboxylic add], for which the EC50 is at most 15 nM.
As for `O=C(O)c1ccc2nc(CN3CC=C(c4cc(OCc5ccc(Cl)cc5F)c(F)cc4F)CC3)n(C[C@@H]3CCO3)c2c1` [Compound 132, (S)-2-((4-(5-((4-chloro-2-fluorobenzyl)oxy)-2H-difluorophenyl)-3,6-dihydropyridin-1(2H)-yl)methyl)-1-(oxetan-2-ylmethyl)-1H-benzo[d]imidazole-6-carboxylic acid], the EC50 is at most 1000 nM.
The value for `O=C(O)c1ccc2nc(CN3CC=C(c4nc(NCc5ccc(Cl)cc5F)c(F)cc4F)CC3)n(C[C@@H]3CCO3)c2c1` [Compound 133, (S)-2-((4-(6-(4-chloro-2-fluorobenzylamino)-3,5-difluoropyridin-2-yl)-5,6-dihydropyridin-1(2H)-yl)methyl)-1-(oxetan-2-ylmethyl)-1H-benzo[d]imidazole-6-carboxylic acid] was at most 15 nM; that for `O=C(O)c1ccc2nc(CN3CC=C(c4cccc(OCc5cccc(C(F)(F)F)c5)n4)CC3)n(C[C@@H]3CCO3)c2c1` [Compound 134, (S)-1-(oxetan-2-ylmethyl)-2-((6-((3-(trifluoromethyl)benzyl)oxy)-3′,6′-dihydro-[2,4′-bipyridin]-1′(2H)-yl)methyl)-1H-benzo[d]imidazole-6-carboxylic acid] was at most 15 nM; that for `O=C(O)c1ccc2nc(CN3CC=C(c4cccc(OCc5ccccc5C(F)(F)F)n4)CC3)n(C[C@@H]3CCO3)c2c1` [Compound 135, (S)-1-(oxetan-2-ylmethyl)-2-((6-((2-(trifluoromethyl)benzyl)oxy)-3′,6′-dihydro-[2,4′-bipyridin]-1′(2′H)-yl)methyl)-1H-benzo[d]imidazole-6-carboxylic acid] was at most 150 nM.
The value for `O=C(O)c1ccc2nc(CN3CC=C(c4cccc(OCc5ccccc5Cl)n4)CC3)n(C[C@@H]3CCO3)c2c1` [Compound 136, (S)-2-((6-((2-chlorobenzyl)oxy)-3′,6′-dihydro-[2,4′-bipyridin]-1′(2′H)-yl)methyl)-1-(oxetan-2-ylmethyl)-1H-benzo[d]imidazole-6-carboxylic acid] was at most 15 nM; that for `O=C(O)c1ccc2nc(CN3CC=C(c4cccc(OCc5cccc(Cl)c5)n4)CC3)n(C[C@@H]3CCO3)c2c1` [Compound 137, (S)-2-((6-((3-chlorobenzyl)oxy)-3′,6′-dihydro-[2,4′-bipyridin]-1′(2′H)-yl)methyl)-1-(oxetan-2-ylmethyl)-1H-benzo[d]imidazole-6-carboxylic add] was at most 1000 nM.
Consider `O=C(O)c1ccc2nc(CN3CC=C(c4cccc(OCc5c(Cl)cccc5Cl)n4)CC3)n(C[C@@H]3CCO3)c2c1` [Compound 138], for which the EC50 is at most 1000 nM.
To `O=C(O)c1ccc2nc(CN3CC=C(c4cccc(OCc5cc(Cl)cc(Cl)c5)n4)CC3)n(C[C@@H]3CCO3)c2c1` [Compound 139, (S)-2-((6-((3,5-dichlorobenzyl)oxy)-3′,6′-dihydro-[2,4′-bipyridin]-1′(2′H)-yl)methyl)-1-(oxetan-2-ylmethyl)-1H-benzo[d]imidazole-6-carboxylic acid] belongs at most 150 nM; to `O=C(O)c1ccc2nc(CN3CC=C(c4cccc(OCc5cc(Cl)ccc5F)n4)CC3)n(C[C@@H]3CCO3)c2c1` [Compound 140, (S)-2-((6-((5-chloro-2-fluorobenzyl)oxy)-3′,6′-dihydro-[2,4′-bipyridin]-1′(2′H)-yl)methyl)-1-(oxetan-2-ylmethyl)-1H-benzo[d]imidazole-6-carboxylic add], at most 150 nM; to `O=C(O)c1ccc2nc(CN3CC=C(c4cccc(OCc5ccc(F)cc5F)n4)CC3)n(C[C@@H]3CCO3)c2c1` [Compound 141, (S)-2-((6-((2H-difluorobenzyl)oxy)-5′,6′-dihydro-[2,4′-bipyridin]-1′(2′H)-yl)methyl)-1-(oxetan-2-ylmethyl)-1H-benzo[d]imidazole-6-carboxylic add], at most 15 nM.
On to `O=C(O)c1ccc2nc(CN3CC=C(c4cccc(OCc5cc(F)cc(F)c5)n4)CC3)n(C[C@@H]3CCO3)c2c1` [Compound 142, (S)-2-((6-((3,5-difluorobenzyl)oxy)-3′,6′-dihydro-[2,4′-bipyridin]-1′(2′H)-yl)methyl)-1-(oxetan-2-ylmethyl)-1H-benzo[d]imidazole-6-carboxylic acid], for which the EC50 was at most 150 nM.
To `O=C(O)c1ccc2nc(CN3CC=C(c4cccc(OCc5cc(Cl)cc(C(F)(F)F)c5)n4)CC3)n(C[C@@H]3CCO3)c2c1` [Compound 143, (S)-2-((6-((3-chloro-5-(trifluoromethyl)benzyl)oxy)-3′,6′-dihydro-[2H′-bipyridin]-1′(2′H)-yl)methyl)-1-(oxetan-2-ylmethyl)-1H-benzo[d]imidazole-6-carboxylic acid] belongs at most 15 nM; to `O=C(O)c1ccc2nc(CN3CC=C(c4cccc(OCc5ccc(F)cc5Cl)n4)CC3)n(C[C@@H]3CCO3)c2c1` [Compound 144, (S)-2-((6-((2-chloro-4-fluorobenzyl)oxy)-3′,6′-dihydro-[2,4′-bipyridin]-1′(2′H)-yl)methyl)-1-(oxetan-2-ylmethyl)-1H-benzo[d]imidazole-6-carboxylic acid], at most 15 nM.
To `O=C(O)c1ccc2nc(CN3CC=C(c4cccc(OCc5ccc(F)c(F)c5)n4)CC3)n(C[C@@H]3CCO3)c2c1` [Compound 145, (S)-2-((6((3,4-difluorobenzyl)oxy)-3′,6′-dihydro-[2,4′-bipyridin]-1′(2′H)-yl)methyl)-1-(oxetan-2-ylmethyl)-1H-benzo[d]imidazole-6-carboxylic acid] belongs at most 15 nM; to `Cc1ccc(COc2cccc(C3=CCN(Cc4nc5ccc(C(=O)O)cc5n4C[C@@H]4CCO4)CC3)n2)cc1` [Compound 146, (S)-2-((6-((4-methylbenzyl)oxy)-3′,6′-dihydro-[2,4′-bipyridin]-1′(2′H)-yl)methyl)-1-(oxetan-2-ylmethyl)-1H-benzo[d]imidazole-6-carboxylic acid], at most 15 nM.
The value for `CC(C)(C)c1ccc(COc2cccc(C3=CCN(Cc4nc5ccc(C(=O)O)cc5n4C[C@@H]4CCO4)CC3)n2)cc1` [Compound 147, (S)-2-((6-((4-(tert-butyl)benzyl)oxy)-5′,6′-dihydro-[2,4′-bipyridin]-1′(2H)-yl)methyl)-1-(oxetan-2-ylmethyl)-1H-benzo[d]imidazole-6-carboxylic add] was at most 1000 nM; that for `CC(C)c1ccc(COc2cccc(C3=CCN(Cc4nc5ccc(C(=O)O)cc5n4C[C@@H]4CCO4)CC3)n2)cc1` [Compound 148] was at most 15 nM; that for `O=C(O)c1ccc2nc(CN3CC=C(c4cccc(OCc5ncc(C(F)(F)F)cc5F)n4)CC3)n(C[C@@H]3CCO3)c2c1` [Compound 149, (S)-2-((6-((3-fluoro-5-(trifluoromethyl)pyridin-2-yl)methoxy)-3′,6′-dihydro-[2H′-bipyridin]-1′(2′II)-yl)methyl)-1-(oxetan-2-ylmethyl)-1H-benzo[d]imidazole-6-carboxylic acid] was at most 15 nM.
